Values of other authors, collected in patent publication US20240397950A1, “DISINFECTANT COMPOSITION” (OTSUKA PHARMACEUTICAL FACTORY, INC., priority 2018, published 2024).

**Q.** For `N=C(NCCCCCCNC(=N)NC(=N)Nc1ccc(Cl)cc1)NC(=N)Nc1ccc(Cl)cc1.O=C(O)[C@H](O)[C@@H](O)[C@H](O)[C@H](O)CO.O=C(O)[C@H](O)[C@@H](O)[C@H](O)[C@H](O)CO` [Chlorhexidine gluconate], which “pH at which a dilute aqueous solution causes precipitation” value is on record?
**A.** Its value is at least 8.
